In patent US10724055B2, “Methods for sustaining the viability of microorganisms during a cessation of syngas flow and processes for storage and reactivation of microorganisms” (Synata Bio, Inc., priority 2015, dated 2020):

Assays:
Test in all cases: Sustaining microorganisms with formate moiety during cessation of syngas feed, recovery on syngas resumption
Type in all cases: cell-based
[1] = system: Clostridium autoethanogenum
Protocol: (§1) A stirred, 10 liter, continuous fermenter is used under anaerobic bioconversion conditions with a feed gas comprising about 63.3 volume percent hydrogen; 20.5 volume percent carbon monoxide; 6.8 volume percent carbon dioxide; 8.2 volume percent methane and 1.2 volume percent nitrogen. During steady state operation, the gas feed is supplied at about 280 to 290 […] (measured at atmospheric pressure and 25° C.) and a media feed is provided at about 200 milliliters per hour. The media feed is an aqueous solution containing:
(§2) An aqueous solution of about 60 millimoles of sodium metabisulfite is separately added at a rate of 0.6 milliliters per hour. The fermenter is maintained at about 37° C. at a pH of about 5.0. The stirring rate is approximately 600 revolutions per minute.
In each example, the fermentation, using the microorganism specified in Table 1, is operated to achieve stable, steady-state conditions. The flow of syngas is then stopped. […] After a predetermined period, the addition of formate moiety is stopped, the nitrogen sweep gas is stopped and the syngas is resumed at a rate that matches the uptake capacity of the microbial population. The stirring is increased to about 600 rpm, and the flow rates of the media feed and metabisulfite feed are resumed to the levels existing prior to the cessation of the syngas feed.

Clostridium coskatii = details: no media or sulfur feed
Protocol: as §1, §2
(§3) In each example, the fermentation, using the microorganism specified in Table 1, is operated to achieve stable, steady-state conditions. The flow of syngas is then stopped. At the time of stoppage of syngas feed, the fermenter is operated in batch mode (no aqueous stream draw from the fermenter), nitrogen gas at about 15 milliliters per minute (atmospheric pressure and 25° C.) is fed to sweep the head space of the fermenter, and the stirring rate is reduced to about 100 rpm. After a predetermined period, the addition of formate moiety is stopped, the nitrogen sweep gas is stopped and the syngas is resumed at a rate that matches the uptake capacity of the microbial population. The stirring is increased to about 600 rpm, and the flow rates of the media feed and metabisulfite feed are resumed to the levels existing prior to the cessation of the syngas feed.

Clostridium radsdalei = details: Example 3; formate feed 5 mole % of electrons; outage 12 hrs; no media or sulfur feed
Protocol: as §1, §2, §3

[2] = system: Clostridium autoethanogenum; details: Example 2; formate feed 3.5 mole % of electrons; outage 6 hrs; media feed 10%; Na2S 20 mg/hr; argon sweep gas
[3] = Example 9, formate feed 10 mole % of electrons, outage 6 hrs, no media or sulfur feed
[4] = Example 10, formate feed 10 mole % of electrons, outage 24 hrs, no media or sulfur feed
[5] = Example 4, formate feed 3.5 mole % of electrons, outage 6 hrs
[6] = Example 5, formate feed 3.5 mole % of electrons, outage 24 hrs
[7] = Example 6, formate feed 15 mole % of electrons, outage 24 hrs
[8] = Example 1, formate feed 3.5 mole % of electrons prior to outage, syngas outage 6 hrs, media feed 10%, Na2S 20 mg/hr, nitrogen sweep
[9] = Example 8, formate feed 3.5 mole % of electrons, outage 6 hrs, no media or sulfur feed

O=CO [Formic acid]
Yes: CO uptake recovery [1, 3] | H2 uptake recovery [1, 3] | CO uptake recovery [1, 4] | H2 uptake recovery [1, 4]

N.O=CO [NH4^+ salt]
Yes: CO uptake recovery (Clostridium coskatii; [5]) | H2 uptake recovery (Clostridium coskatii; [5]) | CO uptake recovery (Clostridium coskatii; [6]) | H2 uptake recovery (Clostridium coskatii; [6]) | CO uptake recovery (Clostridium coskatii; [7]) | H2 uptake recovery (Clostridium coskatii; [7])

O=C[O-].[Na+] [Sodium salt]
Yes: CO uptake recovery [1, 8] | H2 uptake recovery [1, 8] | H2 uptake recovery ([1]; Example 2, formate feed 3.5 mole % of electrons, outage 6 hrs, media feed 10%, Na2S 20 mg/hr, argon sweep gas) | CO uptake recovery [1, 9] | H2 uptake recovery [1, 9] | CO uptake recovery (Clostridium radsdalei) | H2 uptake recovery (Clostridium radsdalei) | CO uptake recovery [2]
